Here are results for eight compounds from ChEMBL document CHEMBL1201862, “PubChem BioAssay data set” (2004).

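How tested: cells in 96-well plates exposed to compound for 48 hours at five concentrations. Abbreviation: GI50, concentration required for 50% inhibition of growth.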 Calls of active or inactive are those of the source. Rule as the data show it: active = GI50 up to about 1.1 µM and inactive = higher.

Among the test systems are RXF 393; RPMI-8226; NCI-H460; Hs-578T; T47D; A498; OVCAR-8; MOLT-4; PC-3; DU-145; A549; SF-268; HCC 2998; ACHN; SK-MEL-28; UO-31; COLO 205; OVCAR-4; SF-539; OVCAR-3.
Assay in all cases: NCI anticancer screen, dose series, 48 h

On to `COc1cc(/C=C/c2nc(NC(=S)Nc3ccccc3)nnc2C)cc(OC)c1OC`, for which the GI50 was 23.6 µM (inactive) in the assay with RXF 393; 22.7 µM (inactive) in the assay on RPMI-8226; 15.7 µM (inactive) with NCI-H460; 17.6 µM (inactive) in the assay with Hs-578T; 19.7 µM (inactive) in the assay on T47D; 27.8 µM (inactive) with A498. Besides, the GI50 in the assay on OVCAR-8 was 20.8 µM (inactive); in the assay on MOLT-4, 25 µM (inactive); with PC-3 it was 14.3 µM (inactive); in the assay with DU-145 it was 34 µM (inactive); with A549, 23.8 µM (inactive); with SF-268 it was 27.4 µM (inactive). The GI50 with HCC 2998 was 12.6 µM (inactive); with ACHN, 18.2 µM (inactive); with SK-MEL-28, > 100 µM (inactive); with UO-31, 4.36 µM (inactive); in the assay on COLO 205 it was 15.5 µM (inactive); in the assay with OVCAR-4, 18.7 µM (inactive).

On to `O=C1/C(=C\Oc2ccc(F)cc2)N2CCC1CC2`, for which the GI50 with RXF 393 was 25.1 µM (inactive); in the assay with RPMI-8226 it was 52.1 µM (inactive); in the assay on Hs-578T, 28.7 µM (inactive); with T47D it was 54.6 µM (inactive); in the assay with A498 it was > 100 µM (inactive); in the assay on OVCAR-8, 85.1 µM (inactive). Further, the GI50 is 34.1 µM (inactive) in the assay with MOLT-4; > 100 µM (inactive) with PC-3; 0.544 µM (active) in the assay with DU-145; > 100 µM (inactive) with A549; 89.5 µM (inactive) in the assay with SF-268; 76.2 µM (inactive) in the assay on ACHN. The GI50 in the assay with SF-539 is > 100 µM (inactive); in the assay on SK-MEL-28 it was 87.1 µM (inactive); in the assay with UO-31, 45.1 µM (inactive); with COLO 205, > 100 µM (inactive); with OVCAR-3, > 100 µM (inactive); with OVCAR-4, 46.8 µM (inactive).

Turning to `CC(=O)Oc1ccc2c3c1[C@H]1O[C@H]1c1cccc(c1-3)[C@@H]1O[C@H]21`, the GI50 in the assay on RXF 393 was 0.409 µM (active); with RPMI-8226, 3.22 µM (inactive); in the assay with Hs-578T, 5.58 µM (inactive); with T47D, 2.09 µM (inactive); with A498, 11.9 µM (inactive); in the assay with OVCAR-8 it was 4.22 µM (inactive). Moreover, the GI50 in the assay on MOLT-4 was 18.5 µM (inactive); in the assay on PC-3, 13.5 µM (inactive); in the assay with DU-145 it was 7.83 µM (inactive); in the assay with A549 it was 7.33 µM (inactive); in the assay with SF-268 it was 5.62 µM (inactive); in the assay on HCC 2998, 7.78 µM (inactive). The GI50 in the assay on ACHN was 18.3 µM (inactive); with SK-MEL-28, 8.15 µM (inactive); in the assay with UO-31, 3.74 µM (inactive); in the assay on COLO 205 it was 10.4 µM (inactive); with OVCAR-3, 3.18 µM (inactive); with OVCAR-4, 7.23 µM (inactive).

As for `C=CC(C)(C)C(=C)C(=O)Nc1ccccc1I`, the GI50 with RXF 393 is > 100 µM (inactive); with RPMI-8226, 98.4 µM (inactive); with NCI-H460, > 100 µM (inactive); in the assay on Hs-578T it was > 100 µM (inactive); in the assay with T47D, > 100 µM (inactive); with A498, > 100 µM (inactive). In addition, the GI50 in the assay with OVCAR-8, in the assay with PC-3, with DU-145, with A549, in the assay with SF-268 and in the assay on HCC 2998 was > 100 µM (inactive) each time. Moreover, the GI50 with ACHN, in the assay with SK-MEL-28, in the assay on UO-31, in the assay on COLO 205, in the assay with OVCAR-3 and in the assay on OVCAR-4 was > 100 µM (inactive) each time.

`CC(=O)c1ccc2c3c1O[C@H]1c4[nH]c5ccccc5c4C[C@@]4(O)[C@@H](C2)N(CC2CC2)CC[C@]314`: the GI50 in the assay on RXF 393 was 13.8 µM (inactive); with RPMI-8226, 18.3 µM (inactive); with NCI-H460 it was 0.497 µM (active); with Hs-578T, 0.933 µM (active); in the assay with T47D, 19.9 µM (inactive); in the assay on A498, 0.333 µM (active). Besides, the GI50 in the assay on OVCAR-8 was 13.6 µM (inactive); in the assay on MOLT-4, 17.1 µM (inactive); with PC-3 it was 10.1 µM (inactive); with DU-145, 20.6 µM (inactive); in the assay with A549 it was 1.15 µM (inactive); in the assay on SF-268, 13.1 µM (inactive). Also, the GI50 in the assay on ACHN is 17.2 µM (inactive); with SF-539, 13.6 µM (inactive); with SK-MEL-28 it was 8.17 µM (inactive); in the assay on UO-31, 15.3 µM (inactive); with COLO 205, 14.9 µM (inactive); in the assay on OVCAR-3 it was 11.4 µM (inactive). Besides, in the assay with OVCAR-4, the GI50 was 20.6 µM (inactive).

In the case of `O=C1C(Cl)=C(NCCN2CCOCC2)C(=O)c2ncccc21`, the GI50 with RXF 393 is 1.95 µM (inactive); with NCI-H460, 1.46 µM (inactive); with Hs-578T, 2.11 µM (inactive); in the assay with T47D, 2.45 µM (inactive); in the assay on A498, 2.97 µM (inactive); in the assay on OVCAR-8, 1.53 µM (inactive). For the same compound, the GI50 in the assay with MOLT-4 was 1.51 µM (inactive); in the assay with PC-3, 2.59 µM (inactive); in the assay with DU-145, 1.66 µM (inactive); with A549, 2 µM (inactive); with SF-268, 1.99 µM (inactive); in the assay with HCC 2998, 1.47 µM (inactive). Also, the GI50 in the assay with ACHN was 2.82 µM (inactive); with SF-539 it was 1.72 µM (inactive); with SK-MEL-28, 1.84 µM (inactive); with UO-31, 1.65 µM (inactive); with OVCAR-3, 1.6 µM (inactive).

For `CN(C)c1ccc(/C=c2/c3ccccc3n3c2cc(NC(=O)NCCC[N+](C)(C)C)[n+]3C)cc1`, the GI50 in the assay on RXF 393 was > 100 µM (inactive); in the assay on RPMI-8226, 22.9 µM (inactive); in the assay on NCI-H460, > 100 µM (inactive); with Hs-578T, > 100 µM (inactive); in the assay on T47D, 6.41 µM (inactive); with A498, > 100 µM (inactive). In addition, the GI50 in the assay with OVCAR-8 is 38.9 µM (inactive); in the assay with MOLT-4, > 100 µM (inactive); with PC-3 it was > 100 µM (inactive); in the assay with DU-145, > 100 µM (inactive); with A549, > 100 µM (inactive); in the assay on SF-268, > 100 µM (inactive). Besides, the GI50 in the assay on ACHN is > 100 µM (inactive); with SF-539, 53.1 µM (inactive); with SK-MEL-28 it was > 100 µM (inactive); with UO-31, > 100 µM (inactive); in the assay on COLO 205, > 100 µM (inactive); with OVCAR-3 it was 45.4 µM (inactive). Further, the GI50 in the assay with OVCAR-4 was 22.2 µM (inactive).

Regarding `COc1ccc2c(c1)N(CCC1CCCCN1C)c1ccccc1S2` (stereo not given) [OXYRIDAZINE], the GI50 in the assay with RXF 393 is 7.18 µM (inactive); in the assay with RPMI-8226, 12.4 µM (inactive); with NCI-H460, 7.46 µM (inactive); in the assay on Hs-578T it was 10.3 µM (inactive); with T47D, 10.8 µM (inactive); in the assay on A498, 10.8 µM (inactive). The GI50 is 15 µM (inactive) with OVCAR-8; 4.85 µM (inactive) in the assay on MOLT-4; 10.8 µM (inactive) with PC-3; 13.2 µM (inactive) in the assay with DU-145; 14.1 µM (inactive) in the assay on A549; 12.4 µM (inactive) in the assay on SF-268. Further, the GI50 in the assay with ACHN was 13.8 µM (inactive); in the assay on SF-539, 23.1 µM (inactive); in the assay with SK-MEL-28 it was 3.58 µM (inactive); with COLO 205, 12.3 µM (inactive); in the assay on OVCAR-3 it was 15.6 µM (inactive); with OVCAR-4, 11.1 µM (inactive).
